Experimental data: ChEMBL document CHEMBL1138576, “Virtual screening for Raf-1 kinase inhibitors based on pharmacophore model of substituted ureas” (Eur J Med Chem, 2009)

Target: RAF proto-oncogene serine/threonine-protein kinase (Homo sapiens, UniProt P04049)
Test: Inhibition of Raf-1

Sequence of RAF proto-oncogene serine/threonine-protein kinase (P04049 whole entry): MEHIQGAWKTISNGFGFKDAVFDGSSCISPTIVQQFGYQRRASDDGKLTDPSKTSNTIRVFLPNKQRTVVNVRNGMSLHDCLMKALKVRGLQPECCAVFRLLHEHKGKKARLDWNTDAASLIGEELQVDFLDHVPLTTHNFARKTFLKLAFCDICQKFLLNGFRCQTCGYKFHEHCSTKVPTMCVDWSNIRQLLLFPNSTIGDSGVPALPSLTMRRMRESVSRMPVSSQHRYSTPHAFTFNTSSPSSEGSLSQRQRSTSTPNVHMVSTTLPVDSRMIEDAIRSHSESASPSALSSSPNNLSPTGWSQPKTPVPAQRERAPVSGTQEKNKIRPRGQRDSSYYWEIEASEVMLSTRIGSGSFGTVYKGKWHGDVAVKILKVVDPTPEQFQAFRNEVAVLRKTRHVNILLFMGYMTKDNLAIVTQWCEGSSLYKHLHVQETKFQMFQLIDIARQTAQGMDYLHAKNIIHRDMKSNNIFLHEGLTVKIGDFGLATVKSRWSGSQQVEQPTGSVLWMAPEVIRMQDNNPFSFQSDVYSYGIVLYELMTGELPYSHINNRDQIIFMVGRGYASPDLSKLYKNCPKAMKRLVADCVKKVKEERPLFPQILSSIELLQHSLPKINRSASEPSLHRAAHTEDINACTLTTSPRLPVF

## COC(=O)c1c(NC(=O)Nc2ccc(C)cc2)cc(C(C)(C)C)n1C
  IC50: 5000 nM

## CC(C)(C)c1cc(NC(=O)Nc2ccc(Oc3ccc(C(=O)O)cc3)cc2)no1
  IC50: 4400 nM

## COC(=O)c1sc(C(C)(C)C)cc1NC(=O)Nc1ccc(O)cc1
  IC50: 18000 nM

## O=C(Nc1ccc(Oc2ccnc(C(=O)Nc3ccc(N4CCOCC4)cc3)c2)cc1)Nc1ccc(Cl)c(C(F)(F)F)c1
  IC50: 160 nM

## CC(=O)Nc1cccc(Oc2ccc(NC(=O)Nc3cc(C(C)(C)C)on3)cc2C(F)(F)F)c1
  IC50: 10000 nM

## Cc1c(NC(=O)Nc2cc(C(C)(C)C)on2)ccc(Oc2ccccc2)c1C
  IC50: 650 nM

## CNS(=O)(=O)c1cccc(Oc2ccc(NC(=O)Nc3cc(C(C)(C)C)on3)cc2)c1
  IC50: 7500 nM

## CN(C)c1ccc(NC(=O)c2cc(Oc3ccc(NC(=O)Nc4ccc(Cl)c(C(F)(F)F)c4)cc3)ccn2)cc1
  IC50: 230 nM

## CC(C)(C)c1cc(NC(=O)Nc2ccc(Cc3ccncc3)cc2)no1
  IC50: 590 nM

## CC(C)(C)c1cc(NC(=O)Nc2ccc(C(O)c3ccncc3)cc2)no1 (stereo not given)
  IC50: 1500 nM

## CNC(=O)c1ccc(Oc2ccc(NC(=O)Nc3cc(C(C)(C)C)on3)cc2)cc1
  IC50: 1100 nM

## Cn1nc(C(C)(C)C)cc1NC(=O)Nc1ccc(Oc2ccncc2)cc1
  IC50: 800 nM

## CC(C)(C)c1cccc(NC(=O)Nc2ccc(Oc3ccncc3)cc2)c1
  IC50: 870 nM

## COc1c(Cl)cccc1NC(=O)Nc1ccc(Oc2ccncc2)cc1
  IC50: 2700 nM

## COc1cc([N+](=O)[O-])ccc1NC(=O)Nc1ccc(Oc2ccncc2)cc1
  IC50: 4400 nM

## COc1cccc(Oc2ccc(NC(=O)Nc3cc(C(C)(C)C)on3)cc2)c1
  IC50: 700 nM

## CC(=O)c1cccc(Oc2ccc(NC(=O)Nc3cc(C(C)(C)C)on3)cc2)c1
  IC50: 820 nM

## COc1cccc(NC(=O)Nc2ccc(Oc3ccncc3)cc2)c1
  IC50: 440 nM

## CCNC(=O)c1cc(Oc2ccc(NC(=O)Nc3cc(C(F)(F)F)c(Cl)cc3OC)cc2)ccn1
  IC50: 88 nM

## Cc1cc(Oc2ccccc2)ccc1NC(=O)Nc1cc(C(C)(C)C)on1
  IC50: 1400 nM

## CC(C)(C)c1cc(NC(=O)Nc2ccc(Oc3ccncc3)cc2)on1
  IC50: 120 nM

## CC(C)(C)c1cc(NC(=O)Nc2ccc(Oc3ccccc3)c(C(F)(F)F)c2)no1
  IC50: 9500 nM

## COc1ccc(Oc2ccc(NC(=O)Nc3cc(C(C)(C)C)on3)cc2)cc1
  IC50: 500 nM

## Cc1cccc(Oc2ccc(NC(=O)Nc3cc(C(C)(C)C)on3)cc2)c1
  IC50: 1000 nM

## O=C(Nc1ccc(Oc2ccnc(C(=O)Nc3cccnc3)c2)cc1)Nc1ccc(Cl)c(C(F)(F)F)c1
  IC50: 44 nM
